# According to patent US20220144841A1, “TRISUBSTITUTED PYRAZOLO [1,5-A] PYRIMIDINE COMPOUNDS AS CDK7 INHIBITORS” (THE TRANSLATIONAL GENOMICS RESEARCH INSTITUTE, priority 2019, published 2022):
# Where a name gives a salt, the structure may show the parent alone.
# Target: T1, CDK7/CycH/MAT1 (Homo sapiens, UniProt P50613)
# T1 construct: purchased ProQinase 0366-0360-4
# Test: Kinase ADP-Glo Assay
# Type: biochemical
# Conditions: ADP-Glo assay (compounds without *), ATP 1 μM, 60 minutes at room temperature
# Protocol: (§1) Assay Buffer: 50 mM HEPES, 3 mM MgCl2, 3 mM MnCl2, 1 mM DTT, 3 μM Na3VO4, pH 7.5
# Substrate RB: CTF Peptide (ProQinase #: 0040-0000-6)
# ADP-Glo™ Assay (Promega #: V9101): ATP: 10 mM, ADP-Glo™ Reagent, Kinase Detection Reagent
# 384-well white assay plates
# (§2) A ten point serial dilution of compound was prepared at 5× concentration in assay buffer with the final assay concentrations starting at 30 μM, 10 μM, 3 μM, 1 μM . . . 0 μM. Enzyme, substrate, and ATP were used at 40 ng, 200 ng (or 400 ng)^+ and 1 μM, respectively. The assay plate was set up by mixing the components in a total reaction volume of 10 μL per well. The plate was centrifuged gently for 10 seconds and incubated at room temperature (RT) for 60 minutes in the dark. The ADP-Glo Reagent and kinase detection reagent were added and incubated as recommended. The reaction was quantified by measuring luminescence on the Perkin Elmer Envision plate reader. Data was analyzed using Graphpad Prism 7 software. *With CDK2 enzyme, 400 ng of substrate was used.
# T1 sequence (P50613 whole entry): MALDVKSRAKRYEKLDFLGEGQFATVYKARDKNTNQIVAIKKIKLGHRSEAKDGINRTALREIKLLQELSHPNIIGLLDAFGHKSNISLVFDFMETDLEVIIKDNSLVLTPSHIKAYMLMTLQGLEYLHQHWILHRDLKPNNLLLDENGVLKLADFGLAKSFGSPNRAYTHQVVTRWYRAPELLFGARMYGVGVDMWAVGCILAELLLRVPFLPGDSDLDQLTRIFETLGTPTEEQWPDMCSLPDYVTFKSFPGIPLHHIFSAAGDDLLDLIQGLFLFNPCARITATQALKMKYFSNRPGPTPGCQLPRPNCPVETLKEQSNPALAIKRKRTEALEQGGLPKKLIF
# T1 sequence (P51946 whole entry partner): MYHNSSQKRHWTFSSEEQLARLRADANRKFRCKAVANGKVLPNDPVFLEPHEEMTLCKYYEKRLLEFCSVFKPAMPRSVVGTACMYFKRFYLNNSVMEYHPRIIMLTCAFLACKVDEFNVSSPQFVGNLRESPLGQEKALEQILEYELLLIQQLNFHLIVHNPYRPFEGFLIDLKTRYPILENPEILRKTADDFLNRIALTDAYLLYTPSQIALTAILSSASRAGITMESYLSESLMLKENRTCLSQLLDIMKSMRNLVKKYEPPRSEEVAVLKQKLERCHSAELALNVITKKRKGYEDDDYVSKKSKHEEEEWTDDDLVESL
# T1 sequence (P51948 whole entry partner): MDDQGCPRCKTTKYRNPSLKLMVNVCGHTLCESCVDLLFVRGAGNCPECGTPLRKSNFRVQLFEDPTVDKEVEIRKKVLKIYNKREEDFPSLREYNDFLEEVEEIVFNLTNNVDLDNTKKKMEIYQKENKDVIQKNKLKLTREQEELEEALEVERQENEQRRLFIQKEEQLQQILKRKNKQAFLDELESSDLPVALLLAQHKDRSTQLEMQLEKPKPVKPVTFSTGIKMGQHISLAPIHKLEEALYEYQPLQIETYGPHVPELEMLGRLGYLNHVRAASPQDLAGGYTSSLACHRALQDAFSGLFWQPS
row,IC50,Structure (SMILES)
1,< 100 nM,"Cc1cc(C#N)cc(Nc2cc(NC[C@H]3CCNC[C@@H]3O)nc3c(C4CC4)cnn23)c1 [Compound I-54, (3R,4R)-3-((3-cyclopropyl-5-((3-hydroxypiperidin-4-yl)methylamino)pyrazolo[1,5-a]pyrimidin-7-yl)amino)-5-methylbenzonitrile]"
2,< 100 nM,"O[C@H]1CNCC[C@@H]1CNc1cc(Nc2cccc(F)c2)n2ncc(C3CC3)c2n1 [Compound I-45, (3R,4R)-4-((3-cyclopropyl-7-((3-fluorophenyl)amino)pyrazolo [1,5-a]pyrimidin-5-yl)aminomethyl)piperidin-3-ol]"
3,< 100 nM,Clc1cccc(Nc2cc(N[C@H]3CCCNC3)nc3c(C4CC4)cnn23)c1 [Compound I-18]

# The remaining lines, values behind:
row,Structure (SMILES),IC50
1,FC(F)(F)Cc1cccc(Nc2cc(N[C@H]3CCCNC3)nc3c(C4CC4)cnn23)c1 [Compound I-10],100 to 1000 nM
2,"O[C@H]1CNCC[C@@H]1CNc1cc(Nc2cc(F)cc(F)c2)n2ncc(C3CC3)c2n1 [Compound I-46, (3R,4R)-4-((3-cyclopropyl-7-((3,5-difluorophenyl)amino)pyrazolo[1,5-a]pyrimidin-5-yl)aminomethyl)piperidin-3-ol]",100 to 1000 nM
3,FC(F)(F)c1cccc(Nc2cc(N[C@H]3CCCNC3)nc3c(C4CC4)cnn23)c1 [Compound I-8],< 100 nM
4,"Cc1cccc(CNc2cc(N[C@H]3CCCNC3)nc3c(C#N)cnn23)c1 [Compound I-30, (S)-7-((3-methylbenzyl)amino)-5-((piperidin-3-yl)amino)pyrazolo[1,5-a]pyrimidine-3-carbonitrile]",100 to 1000 nM
5,"O[C@@H]1CNCC[C@H]1COc1cc(Nc2cccc(F)c2)n2ncc(C3CC3)c2n1 (relative stereo) [Compound I-53, trans-4-((3-cyclopropyl-7-((3-fluorophenyl)amino)pyrazolo [1,5-a]pyrimidin-5-yl)oxymethyl)piperidin-3-ol]",< 100 nM
6,"O[C@@H]1CNCC[C@H]1CNc1cc(Nc2cc(F)cc(F)c2)n2ncc(C3CC3)c2n1 [Compound I-47, (3S,4S)-4-((3-cyclopropyl-7-((3,5-difluorophenyl)amino)pyrazolo[1,5-a]pyrimidin-5-yl)aminomethyl)piperidin-3-ol]",100 to 1000 nM
7,"N[C@H]1CC[C@H](Nc2cc(Nc3cccc(F)c3)n3ncc(C4CC4)c3n2)CC1 [Compound I-6, Trans-N^5-(4-aminocyclohexyl)-3-cyclopropyl-N^7-(3-fluorophenyl)pyrazolo[1,5-a]pyrimidine-5,7-diamine]",100 to 1000 nM

# Target: T1, CDK7/CycH/MAT1
# Test: Kinase Glo Assay
# Type: biochemical
# Conditions: Kinase-Glo Assay was used (compounds marked *), ATP 1 μM, 60 minutes at room temperature
# Protocol: as §1
# Kinase-Glo™ Assay (Promega #: V6711): ATP: 10 mM, Kinase-Glo™ Reagent 384-well white assay plates
# as §2, with “Enzyme” for “Enzyme, substrate,”, “40” for “40 ng, 200”, “ng” for “ng (or 400 ng)^+”, “Kinase-Glo” for “ADP-Glo”, “was” for “and kinase detection reagent were”, “software.” for “software. *With CDK2 enzyme, 400 ng of substrate was used.”
row,IC50,Structure (SMILES)
1,> 1000 nM,"O[C@H]1CCNC[C@@H]1Nc1cc(Nc2cccc(F)c2)n2ncc(C3CCC3)c2n1 [Compound I-24, (3S,4S)-3-((3-cyclobutyl-7-((3-fluorophenyl)amino)pyrazolo [1,5-a]pyrimidin-5-yl)amino)piperidin-4-ol hydrochloride]"
2,100 to 1000 nM,"OCCN1CCC[C@H](Nc2cc(NCc3cccc(F)c3)n3ncc(C4CC4)c3n2)C1 [Compound I-33, (S)-2-(3-((3-cyclopropyl-7-((3-fluorobenzyl)amino)pyrazolo [1,5-a]pyrimidin-5-yl)amino)piperidin-1-yl)ethan-l-ol]"
3,100 to 1000 nM,"N#Cc1cnn2c(NCc3cccc(Cl)c3)cc(N[C@H]3CCCNC3)nc12 [Compound I-28, (S)-7-((3-chlorobenzyl)amino)-5-((piperidin-3-yl)amino)pyrazolo[1,5-a]pyrimidine-3-carbonitrile]"
4,100 to 1000 nM,"Clc1cccc(Nc2cc(N[C@H]3CCCNC3)nc3c(Cl)cnn23)c1 [Compound I-1, (S)-3-chloro-N^7-(3 - chlorophenyl)-N^5-(piperidin-3-yl)pyrazolo[1,5-a]pyrimidine-5,7-diamine]"
5,100 to 1000 nM,"Fc1cccc(Nc2cc(N[C@H]3CCCNC3)nc3c(C4CCC4)cnn23)c1 [Compound I-23, (S)-3-cyclobutyl-N^7-(3-fluorophenyl)-N^5-(piperidin-3-yl)pyrazolo[1,5-a]pyrimidine-5,7-diamine hydrochloride]"

# The remaining lines, values behind:
row,Structure (SMILES),IC50
1,"O[C@H]1CCNC[C@@H]1Nc1cc(Nc2cccc(F)c2)n2ncc(Cl)c2n1 [Compound I-3, (3S,4S)-3-((3-chloro-7-((3-fluorophenyl)amino)pyrazolo [1,5-a]pyrimidin-5-yl)amino)piperidin-4-ol]",> 1000 nM
2,"Fc1cccc(Nc2cc(N[C@H]3CCCCNC3)nc3c(C4CC4)cnn23)c1 [Compound I-5, (S)-N^5-(azepan-3-yl)-3-cyclopropyl-N^7-(3-fluorophenyl)pyrazolo[1,5-a]pyrimidine-5,7-diamine]",> 1000 nM
3,"Fc1cccc(Nc2cc(N[C@H]3CCCNC3)nc3c(C4CC4)cnn23)c1 [Compound I-19, hydrochloride]",100 to 1000 nM
4,"N#Cc1cnn2c(NCc3cc(F)cc(Cl)c3)cc(N[C@H]3CCCNC3)nc12 [Compound I-27, (S)-7-((3-chloro-5-fluorobenzyl)amino)-5-((piperidin-3-yl)amino)pyrazolo[1,5-a]pyrimidine-3-carbonitrile]",100 to 1000 nM
5,"Fc1cccc(Nc2cc(N[C@H]3CCCNC3)nc3c(Cl)cnn23)c1 [Compound I-2, (S)-3-chloro-N^7-(3-fluorophenyl)-N^5-(piperidin-3-yl)pyrazolo[1,5-a]pyrimidine-5,7-diamine]",< 100 nM
6,"N#Cc1cnn2c(NCc3cc(Cl)cc(Cl)c3)cc(N[C@H]3CCCNC3)nc12 [Compound I-26, (S)-7-((3,5-dichlorobenzyl)amino)-5-((piperidin-3-yl)amino)pyrazolo[1,5-a]pyrimidine-3-carbonitrile]",100 to 1000 nM
7,"Fc1cccc(CNc2cc(N[C@H]3CCCNC3)nc3c(C4CC4)cnn23)c1 [Compound I-32, (S)-3-cyclopropyl-N^7-(3-fluorobenzyl)-N^5-(piperidin-3-yl)pyrazolo[1,5-a]pyrimidine-5,7-diamine hydrochloride]",100 to 1000 nM
